Reference: US20090215813A1, “HISTONE DEACETYLASE INHIBITORS AS IMMUNOSUPPRESSANTS” (priority 2003, published 2009)

What was measured:
[1] = tested on: spleen cells from CBA and BALB/c mice; assay: Allogeneic two-way mixed lymphocyte reaction (MLR); assay type: cell-based; settings: two-way mouse MLR, 3H-thymidine incorporation after four days, read-out: IC50 value (concentration required for 50% inhibition of proliferation)
Protocol: Cellular Assay: Allogeneic Mixed Lymphocyte Reaction (MLR)
The two-way MLR is performed according to standard procedures (J. Immunol. Methods, 1973, 2, 279 and Meo T. et al., Immunological Methods, New York, Academic Press, 1979, 227-39). Briefly, spleen cells from CBA and BALB/c mice (1.6×10^5 cells from each strain per well in flat bottom tissue culture microtiter plates, 3.2×10^5 in total) are incubated in RPMI medium containing 10% FCS, 100 U/ml penicillin, 100 μg/ml streptomycin (Gibco BRL, Basel, Switzerland), 50 μM 2-mercaptoethanol (Fluka, Buchs, Switzerland) and serially diluted compounds. Seven three-fold dilution steps in duplicates per test compound are performed. After four days of incubation 1 μCi ^3H-thymidine is added. Cells are harvested after an additional five-hour incubation period, and incorporated ^3H-thymidine is determined according to standard procedures. Background values (low control) of the MLR are the proliferation of BALB/c cells alone. Low controls are subtracted from all values. High controls without any sample are taken as 100% proliferation. Percent inhibition by the samples is calculated, and the concentrations required for 50% inhibition (IC50 values) are determined. In this assay, the agents of the invention have IC50 values in the range of 1 nM to 10 μM, preferably from 1 nM to 500 nM.

[2] = tested on: Balb/c (H-2d) heart graft in C57BL/6J (H-2b) recipients; assay: Acute rejection, heterotopic heart transplantation, graft survival; assay type: in vivo, mice; settings: versus saline, across dosing schedules
Protocol: Balb/c (H-2^d) mice are used as donor animals, and e.g. C57BL/6J (H-2^b) mice as recipients. The heart is removed from the donors according to known procedures and stored in cold saline (4° C.). The recipient animals are anaesthetised with isofluorane. […] Blood vessels are dissected free from the fascia for a length of 3-5 mm, ligating and dividing any small branches. Vessels are occluded, first proximally and then distally. An arteriotomy and venotomy is performed, and lumens are flushed with heparinised physiological saline. […] The distal ligature is removed, then the proximal ligature. The suture lines are checked for leakage. Then the graft is tethered retroabdobminally. The abdomen is flooded with warm saline (37° C.) and the wound is closed. Graft function is monitored daily by palpation of the abdomen. Rejection is concluded when the graft stops beating. Animals are treated with a 100 μL subcutaneous injection of saline or a solution of a HDAI, e.g. the compound of formula (I), e.g. N-hydroxy-3-[4-[[[2-(2-methyl-1H-indol-3-yl)-ethyl]-amino]methyl]phenyl]-2E-2-propenamide in lactate buffer pH 5.5 according to the dosing schedule shown in Table 1 below: […]

[3] = tested on: heart graft, strain combination Lewis and BN; assay: Rat heart transplantation, graft survival and histology; assay type: in vivo; settings: for effect of co-administration: test not named
Source text: Rat Heart Transplantation
The strain combination used is Male Lewis (RT1 haplotype) and BN (RT1 haplotype). The animals are anaesthetized using inhalation isofluorane. […] The aorta is ligated and divided distal to the first branch and the brachiocephalic trunk is divided at the first bifurcation. The left pulmonary artery is ligated and divided and the right side divided but left open. All other vessels are dissected free, ligated and divided and the donor heart is removed into iced saline.
The recipient is prepared by dissection and cross-clamping of the infra-renal abdominal aorta and vena cava. The graft is implanted with end-to-side anastomoses, using 10/0 monofilament suture, between the donor brachiocephalic trunk and the recipient aorta and the donor right pulmonary artery to the recipient vena cava. The clamps are removed, the graft tethered retroabdominally, the abdominal contents washed with warm saline and the animal is closed and allowed to recover under a heating lamp. Animals are treated with saline (control); an HDAI compound e.g. a compound of formula (I), e.g. N-hydroxy-3-[4-[[[2-(2-methyl-1H-indol-3-yl)-ethyl]-amino]methyl]phenyl]-2E-2-propenamide (“compound P1”); 40-O-(2-hydroxyethyl)-rapamycin (“compound P2”) prepared according to the methods described in WO 94/09010; FTY720 (“compound P3”) prepared according to Example 28 of WO 94/08943, or combinations of the each as indicated. Graft survival is monitored by daily palpation of the beating donor heart through the abdominal wall. Rejection is considered to be complete when heart beat stops. At that point the animal is euthanized and the transplanted heart is fixed for histology. […] The scale for grading for acute rejection is 1=slight; 2=moderate; 3=marked; 4=severe.

Structure (SMILES): Cc1[nH]c2ccccc2c1CCNCc1ccc(/C=C/C(=O)NO)cc1 [Compound P1, N-hydroxy-3-[4-[[[2-(2-methyl-1H-indol-3-yl)-ethyl]-amino]methyl]phenyl]-2E-2-propenamide]
- IC50 [1]: 9 nM
- increases graft survival [2]: 2-5 times the number of days
- Median survival time (MST) ([3]; 0.3 mg/kg/d s.c., rat): 6
- Median survival time (MST) ([3]; 1.0 mg/kg/d s.c., rat): >28
- Survival (days) for each individual graft ([3]; 1.0 mg/kg/d s.c., rat): >28, >28, >28 days
- effect of co-administration ([3]; co-administered with a mTOR inhibitor, e.g. 40-O-(2-hydroxyethyl)-rapamycin): synergistic effect
- effect of co-administration ([3]; co-administered with a sphingosine 1-phosphate receptor agonist): synergistic effect

Structure (SMILES): CO[C@H]1C[C@@H]2CC[C@@H](C)[C@@](O)(O2)C(=O)C(=O)N2CCCC[C@H]2C(=O)O[C@H]([C@H](C)C[C@@H]2CC[C@@H](OCCO)[C@H](OC)C2)CC(=O)[C@H](C)/C=C(\C)[C@@H](O)[C@@H](OC)C(=O)[C@H](C)C[C@H](C)/C=C/C=C/C=C/1C [Compound P2, 40-O-(2-hydroxyethyl)-rapamycin, reference compound]
- Median survival time (MST) ([3]; 0.3 mg/kg/d p.o., rat): 7

Structure (SMILES): CCCCCCCCc1ccc(CCC(N)(CO)CO)cc1 [Compound P3, FTY720, reference compound]
- Median survival time (MST) ([3]; 0.1 mg/kg/d p.o., rat): 7.5
